Experimental data from PubChem BioAssay AID179 (DTP/NCI, 2004).
The source made the active and inactive calls.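 Rule for the calls: active = compounds giving half or more protection of infected cells from virus-caused growth loss, again on retest; inactive = the rest.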 Where a SMILES comes first, the peptide text is derived from it.

System: CEM cells HIV-1 protection, formazan growth assay
Experiment: NCI AIDS Antiviral Assay
Settings: for IC50: measured here: growth of uninfected CEM cells
In short: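 Soluble formazan readout of cell growth; CEM cells ± HIV-1; 5 drug concs. ≥50% protection → retest; ≥50% again = moderately active; reproducible 100% = confirmed active.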

Row | SMILES | EC50 [µM] | IC50 [µM] | outcome
1 | COP(=O)(OC)C(C)(C)NC(=O)NC(F)(F)F | > 200 | > 200 | –
2 | COC1=CC(=O)C2C(C1=O)C(c1ccc(Cl)cc1)[C@@H]2C (stereo partly drawn) | > 170 | 28.2 | –
3 | CCOC(=O)c1nc2ccc(Cl)cc2c2c1CCO2 | > 5.25 | > 5.25 | –
4 | CC1(C)C=[N+]([O-])C(C)(C)N1 | > 200 | > 200 | –
5 | COC(CNC(=O)CNC(=O)c1ccc(C(F)(F)F)cc1)OC | – | – | inactive
6 | COC[C@@H]1[C@H]2OC(C)(C)O[C@H]2C(=O)N1C(=O)c1ccc(OC)cc1 | > 200 | > 200 | –
7 | COc1cc(-c2ccc(N=Nc3c(S(=O)(=O)O)cc4cc(S(=O)(=O)O)cc(N)c4c3O)c(OC)c2)ccc1N=Nc1c(S(=O)(=O)O)cc2cc(S(=O)(=O)O)cc(N)c2c1O | – | – | active
8 | CO[C@H]1C=CO[C@@]2(C)Oc3c(C)c(O)c4c(O)c(c(CN5CCN(C)CC5)c(O)c4c3C2=O)NC(=O)/C(C)=C\C=C[C@H](C)[C@H](O)C(C)[C@@H](O)C(C)[C@H](OC(C)=O)[C@@H]1C (stereo partly drawn) | – | – | inactive
9 | O=C1CCn2c([nH]c3cccc4cccc2c43)=N1 | > 151 | 148 | –
10 | Cc1ccc(NC(=O)CC(=O)n2nc(C)c(N=Nc3ccc(S(=O)(=O)CCOS(=O)(=O)O)cc3)c2C)cc1 | > 200 | > 200 | –
11 | CC(c1ccccc1O)C1CCCCC1N=O (stereo not drawn) | – | – | inactive
12 | CCOC(=O)c1c2cccccc2n2c(=O)cc(C)nc12 | – | – | inactive
13 | COc1ccc2c(c1O)C13CCN(C)C(C2)C1CCC1(C3)OCCO1 (stereo not drawn) | > 380 | 204 | –
14 | O=C(N/C(=C\c1ccc(Br)cc1)c1nc2ccccc2s1)c1ccccc1 | > 22.9 | > 22.9 | –
15 | CC1CC(C)(C)OB(OC(C)CC(C)(C)OB2OC(C)CC(C)(C)O2)O1 (stereo not drawn) | > 200 | > 200 | –
16 | C1=Cc2nc1c(-c1ccccc1)c1ccc([nH]1)c(-c1ccccc1)c1nc(c(-c3ccccc3)c3ccc([nH]3)c2-c2ccccc2)C=C1 | > 2.34 | > 2.34 | –
17 | CC(C)C1=CC2=CC=C3C(C)(C)CC(=O)OC3(C)CC2=C(O)C1=O (stereo not drawn) | – | – | inactive
18 | CSC1=NN(C(C)=O)C(C(OC(C)=O)C(OC(C)=O)C(OC(C)=O)C(COC(C)=O)OC(C)=O)S1 (stereo not drawn) | – | – | inactive
19 | CC(C)(C)NN=C1C(C)(C)C(=NNC(C)(C)C)C1(C)C | > 316 | > 316 | –
20 | Brc1ccc(N2N=NC3CN(c4ccccc4)CC32)cc1 (stereo not drawn) | > 100 | 58.9 | –
21 | COC(=O)c1c2c(cc3c1CCC3)CCC2 | > 200 | > 200 | –
22 | CCOC(=O)C12CCC(c3c(C)cccc3C)(O1)C(C(=O)OC)=C2C(=O)OC (stereo not drawn) | > 200 | 107 | –

Row | SMILES | EC50 [µM] | IC50 [µM] | outcome
23 | Cc1cc[n+](C2=C([O-])C3=C(C(=O)C2=O)C2c4ccccc4C3c3ccccc32)c(C)c1 | > 33.9 | 31.6 | –
24 | CC(C)Oc1c(-c2ccc(F)cc2)c(O)c2c3c1oc(=O)n3C=CC2C (stereo not drawn) | 13.2 | 14.8 | –
25 | CN(C)NC(=O)NC12CC3CC(CC(C3)C1)C2 | – | – | inactive
26 | Nc1nc(=S)c2c(ncn2CC(O)CO)[nH]1 (stereo not drawn) | 363 | 525 | –
27 | CC(C)S1=C2C(=O)CC(C)(C)CC2=Nc2ccccc21 (stereo not drawn) | 61.7 | > 200 | –
28 | Cc1ccsc1C(=S)Nc1ccc(Cl)c(/C=N/OC(C)(C)C)c1 | 0.141 | 14.1 | –
29 | O=C1c2ccccc2C(=O)N1CCc1ncc[nH]1 | > 200 | > 200 | –
30 | N#CNc1nc(C(=O)Nc2ccc(Cl)cc2)cc(-c2ccccc2)n1 | > 355 | > 355 | –
31 | CC(=O)OCC(=O)[C@@]1(O)CC[C@H]2[C@@H]3CCC4=CC(=O)C[C@H](SC(C)=O)[C@]4(C)[C@H]3CC[C@@]21C | > 200 | 117 | –
32 | COc1ccc(C2SCC(=O)N2NC(=O)c2ccc(NC(C)=O)cc2)c(OC)c1 (stereo not drawn) | > 63.1 | > 63.1 | –
33 | O=C1OCC2=C1C(c1ccc3c(c1)OCO3)c1cc3c(cc1O2)OCO3 (stereo not drawn) | > 200 | 1.66 | –
34 | COc1nc2cc3c(cc2n2cccc12)oc1ccccc13 | 155 | > 200 | –
35 | COC(=O)C(=O)C1CSC2=C(CS(=O)(=O)c3ccccc32)C1=O (stereo not drawn) | > 200 | > 200 | –
36 | C=Cc1ccccn1 | > 200 | > 200 | –
37 | C=CCn1c2c(sc1=S)C(S)N=CN2 (stereo not drawn) | > 107 | 42.7 | –
38 | Cc1cc(-c2cccc3ccccc23)c(C#N)c(=S)n1C1OC(CO)C(O)C(O)C1O (stereo not drawn) | > 200 | 66.1 | –
39 | N#CC1(C#N)C(c2ccccc2)NC23CCCCC2C1(C#N)C(=O)N3 (stereo not drawn) | > 200 | 81.3 | –
40 | CSC(=S)Nc1cccc(C)n1 | > 200 | 102 | –
41 | CCOC(=O)C(CCc1ccccn1)C(C)=O (stereo not drawn) | > 200 | > 200 | –
42 | Cc1cc(C2CCCCC2)n(O)c(=O)c1 | – | – | inactive
43 | Nc1nccc(CCc2ccccc2)n1 | > 36.3 | > 36.3 | –
44 | O=c1[nH]c(=O)n(COCc2ccccc2)c2ccc(Br)cc12 | > 200 | > 200 | –

Row | SMILES | EC50 [µM] | IC50 [µM] | outcome
45 | C=CCc1ccc(Oc2cc(CC=C)c3c(c2O)O[C@@H](CO)[C@H]3c2ccc(O)c(-c3cc(CC=C)ccc3O)c2)cc1 | > 100 | > 100 | –
46 | CC1(c2ccc3ccccc3c2)OC(=O)c2cccc(F)c21 (stereo not drawn) | – | – | inactive
47 | C[Si](C)(CCC(=O)O)O[Si](C)(C)CCC(=O)O | > 646 | > 646 | –
48 | CC1CC2=C(C(=O)O1)C(c1ccccc1)Nc1ccccc1N2 (stereo not drawn) | > 427 | 81.3 | –
49 | Cc1ccc(NC(Nc2ccc(C)cc2C)=C(C(Cl)=C(Cl)Cl)[N+](=O)[O-])c(C)c1 | > 200 | 7.94 | –
50 | Cc1ccc(Nc2nc(=O)[nH]c(=O)[nH]2)cc1N=[N+]=[N-] | > 200 | > 200 | –
51 | CCCCCCC(c1ccc(O)c(C(=O)O)c1)c1ccc(O)c(C(=O)O)c1 | > 1000 | 166 | –
52 | O=C1NN(c2ccccc2)C(=O)C2C3c4ccccc4C(c4ccccc43)C12 (stereo not drawn) | > 200 | > 200 | –
53 | CCN(CC)c1cccc2c1C1(O)CCC3(CC21)OCCCCO3 (stereo not drawn) | > 200 | 97.7 | –
54 | O=C(O)/C=C/C(=O)Nc1ccccc1 | > 200 | > 200 | –
55 | C=C1[C@@H]2CC[C@@]3([C@@H](C2)[C@@]24CCC[C@@]5(C)CN(CCO)[C@@H]2O[C@@H]3C[C@H]54)[C@@H]1O | – | – | inactive
56 | COc1ccccc1NC(=O)O/N=C(/Cl)C(C)C | > 200 | 7.41 | –
57 | O=C(CC1C(=O)Nc2ccccc2S1=O)Nc1cc(Cl)ccc1Cl (stereo not drawn) | > 3.8 | > 3.8 | –
58 | CN(C)CCn1nc2n(c(=O)c1=O)CC(=O)N(C)c1ccc(Cl)cc1-2 | > 407 | > 407 | –
59 | CC(C)(C)N1C(=O)[N+]2(CCCCC2)N=C1[O-] | > 4.47 | > 4.47 | –
60 | CC1=C(C(=O)Nc2ccc([N+](=O)[O-])cc2)C(c2ccccc2O)C(C(=O)Nc2ccc([N+](=O)[O-])cc2)=C(C)N1 | > 49 | 30.9 | –
61 | CCOP(=O)(OCC)/C(C#N)=C/c1ccc[nH]1 | > 977 | 575 | –
62 | Cc1cc(C)nc(NS(=O)(=O)c2ccc(NC(=O)c3ccc4nc5ccccc5c(Nc5ccc(S(=O)(=O)Nc6nc(C)cc(C)n6)cc5)c4c3)cc2)n1 | > 200 | 29.5 | –
63 | COc1cc2c(cc1OC)C1C=NC(C(=O)O)(C2)c2ccccc21 (stereo not drawn) | – | – | inactive
64 | CSc1c2c(C)n[nH]c2nn1-c1ccccc1 | > 200 | 12.3 | –
65 | NC1(S(=O)(=O)O)c2ccccc2-c2ccccc21 | > 200 | 151 | –
66 | CCOP(=O)(OCC)C(c1ccccc1)N(C(=O)NC(F)(F)F)c1cccc(F)c1 (stereo not drawn) | > 200 | 95.5 | –

Row | SMILES | EC50 [µM] | IC50 [µM] | outcome
67 | O=C(OC1C#CCSCC#C/C=C\1)c1ccc2c(c1)C(=O)c1ccccc1C2=O (stereo not drawn) | > 200 | 69.2 | –
68 | COc1ccc(C2[C@H]3C(=O)N(c4ccc(Cc5ccc(N6C(=O)[C@@H]7ON(c8ccccc8)C(c8ccc(OC)cc8)[C@@H]7C6=O)cc5)cc4)C(=O)[C@H]3ON2c2ccccc2)cc1 (stereo partly drawn) | > 4.68 | > 4.68 | –
69 | N#CC(=Nc1ccccc1N(C(=O)c1ccccc1)C(=O)c1ccccc1)c1ccccc1 | > 17 | > 17 | –
70 | CCOC(=O)C1(C(=O)OCC)NC(=O)CC1CC (stereo not drawn) | – | – | inactive
71 | O=C(n1[nH]c(=O)n(-c2ccc([N+](=O)[O-])cc2)c1=O)C(Cl)(Cl)Cl | > 200 | > 200 | –
72 | O=c1oc2c(ccc3occc32)c(N2CCCCC2)c1-c1ccccc1 | – | – | inactive
73 | Cc1cn([C@@H]2C[C@H]2CO)c(=O)[nH]c1=O | – | – | inactive
74 | Clc1ccc(SSc2ccccc2)cc1 | – | – | inactive
75 | CC(C)C(N=C1CC2CCC1(C(=O)Nc1ccccc1O)C2(C)C)c1ccccc1 (stereo not drawn) | 20 | 32.4 | –
76 | O=C1CC2(CCNCC2)C(=O)N1N1CCCC1 | > 200 | > 200 | –
77 | COc1cc2c(oc(=O)c3cc4ccoc4c(OC)c32)c2cccc(O)c12 | > 1.45 | > 1.45 | –
78 | CC1(C2(C)OC(=O)c3ccccc32)OC(=O)c2ccccc21 (stereo not drawn) | > 200 | > 200 | –
79 | Cc1c(N=Nc2ccc([N+](=O)[O-])cc2)nc2scc(-c3ccccc3)n12 | > 14.5 | > 14.5 | –
80 | COc1ccc(C[C@H](N)C(=O)N2C[C@@H](CO)C[C@@H](n3cnc4c(N(C)C)ncnc43)C2)cc1 | > 275 | > 275 | –
81 | NC(=O)C1CCCN1C(=O)C(N)Cc1ccccc1 (stereo not drawn) (H-Phe-Pro-NH2; configuration not given here) | > 200 | > 200 | –
82 | Cc1cc(S(=O)(=O)n2cc[nH]c2=O)c(S)cc1Cl | > 200 | > 200 | –
83 | C=C1CC2(CCOc3ccc(Cl)cc32)OC1=O (stereo not drawn) | > 372 | 0.977 | –
84 | CCOC(=O)C1C(c2ccc(OC)cc2)c2c([nH][nH]c2=O)CC1(O)OCC (stereo not drawn) | – | – | inactive
85 | CC(C)S(=O)(=O)c1s[nH]c(=O)c1-c1ccccc1 | > 178 | > 178 | –
